# Experimental data published in article PMC10897598, “TwinF interface inhibitor FP802 stops loss of motor neurons and mitigates disease progression in a mouse model of ALS” (Cell Reports Medicine, 2024).
# Like-named read-outs stand apart in the source and are kept apart here.
# What was measured:
# [1] = tested on: human iPSC-derived forebrain organoids; test: NMDA-induced neurotoxicity in human iPSC-derived forebrain organoids; assay type: cell-based; conditions: for IC50: Homo sapiens, NMDA 300 μM, read-out: IC50, protection against NMDA-induced neurotoxicity
# Procedure: The generation of human-iPSC-derived forebrain organoids was carried out in accordance with the regulations of Heidelberg University. The sporadic ALS iPSC line and the SOD1^G94A ALS iPSC line were purchased from Cedars-Sinai (CS2XWCiALS-nxx and CS2RJViALS-nxx). The healthy control iPSC lines were from Dr. Jochen Utikal (DKFZ, Germany). Forebrain organoids were generated and maintained as described previously.[37]^,[45] Briefly, hiPSCs were dissociated into single cells by Accutase and aggregated in round bottom 96-microwell plates with 5 min centrifugation at 600 rpm. On the second day, hiPSC aggregates were collected and transferred into low attachment 35 mm dishes (24 aggregates/dish) and kept in neural induction medium (DMEM/F12 medium supplemented with 1× penicillin/streptomycin, 1× Normocin, 1× GlutaMAX, 1× N-2 supplement, 2× B27 without vitamin A, 500 nM dorsomorphin, 50 ng/mL recombinant human noggin, 10 μM SB431542, 2 μM IWP-2, 1 μM cyclopamine, and 0.1% β-mercaptoethanol) for 3 days with a daily medium change. Recombinant human FGF (10 ng/mL) was present in neural induction medium from day 4 to day 7 with one medium change on day 5.5. On day 7, neural induction medium was changed to proliferation medium (neurobasal medium supplemented with 1× GlutaMAX, 1× penicillin/streptomycin, 1× Normocin, 1× B27 without vitamin A, 10 ng/mL recombinant human FGF, 10 ng/mL recombinant human EGF, 2 μM IWP-2, and 1 μM cyclopamine) for two weeks with medium change every 2–3 days. In week 4–5, the proliferation medium was changed to differentiation medium (neurobasal medium supplemented with 1× GlutaMAX, 1× penicillin/streptomycin, 1× Normocin, 10 ng/mL recombinant human BDNF, and 10 ng/mL recombinant human NT-3) with medium change every 2–3 days. From week 6, the organoids were kept in the maturation medium (BrainPhys medium supplemented with 1× GlutaMAX, 1× penicillin/streptomycin, 1× Normocin) until week 18–20 when they were used for experiments.
# The analysis of forebrain organoid cell types that undergo NMDA-induced cell death was done using immunostainings of cryosections of 20-week-old forebrain organoids with antibodies against the neuronal markers, NeuN and Myelin transcription factor 1 like (Myt1L) protein, and the astrocyte marker, glial fibrillary acidic protein (GFAP) using the following procedure. All organoids were washed with PBS twice and fixed using 4% paraformaldehyde in PBS for 30 min, followed by 24 h incubation with 30% sucrose solution in PBS. Organoids were snap frozen on dry ice in cryoprotectants and 30 μm cryosections were prepared for staining. […] Cells stained with NeuN, Myt1L, and Hoechst were automatically counted with ImageJ with the particle analyzer with a self-developed macro using the Binary-Watershed function, size exclusion was set at 60 μm^2. NeuN-positive and Myt1L-positive post-mitotic neurons were counted in confocal section z-stacks of whole organoids (5–8 organoids from 2 batches) with ImageJ with the particle analyzer with a self-developed macro using the Binary-Watershed function, size exclusion was set at 60 μm^2 and expressed as a percentage of total Hoechst-stained nuclei. GFAP staining was quantified by measuring the fluorescent signals of z-stacks of confocal sections of whole organoids (5–6 organoids from 2 batches) using ImageJ and expressed as arbitrary units. […]
# [2] = Hematology of treated SOD1G93A mice; assay type: in vivo, mouse; conditions: 40 mg/kg/day s.c. pump
# Procedure: (§1) All hematology and most serum clinical chemistry analyses were carried out by IDEXX Laboratories, Germany. The neurofilament light chain levels in serum were determined by PBL Assay Science (USA) using the Simoa NF-light Advantage Kit (Quanterix Cat #103186).
# (§2) Vehicle FP802 n Significance 95% Interval
# Anisocytosis (%) 0 0 4 n.a. -
# Band neutrophils 0 0 4 n.a. -
# Basophils (%) 0 0 4 n.a. -
# Atypical cells 0 0 4 n.a. -
# Table S2. Hematology of SOD1G93A mice treated with vehicle or FP802.
# (§3) FP802 delivered with a subcutaneously implanted ALZET osmotic pump at 40 mg/kg/day for 4 weeks starting at
# References were from Charles
# River Laboratories datasheets for C57BL6 mice. Related to Figure 2.
# [3] = Serum clinical chemistry of treated SOD1G93A mice; assay type: in vivo, mouse; conditions: 40 mg/kg/day s.c. pump
# Procedure: as §1, §2
# Table S3. Clinical chemistry serum parameters of SOD1G93A mice treated with vehicle or FP802.
# as §3
# References were from Charles River Laboratories datasheets for C57BL6 mice. Related to Figure 2.
smiles,measurement,setting,value
CCN(CCN)Cc1cccc(Cl)c1 [FP802],IC50,[1]; SOD1G94A ALS organoids,9 µM
same,IC50,[1]; healthy control-1 organoids,26 µM
same,IC50,[1]; healthy control-2 organoids,15 µM
same,IC50,[1]; sporadic ALS organoids,9.3 µM
same,NMDA-induced death of neurons in ALS patient-derived organoids,"[1]; NMDA 300 μM 24 h, NeuN/Myt1L immunostaining and viability, dose-dependent",effectively blocked
same,Anisocytosis,[2]; 4 weeks,0%
same,Atypical cells,[2]; 4 weeks,0
same,Band neutrophils,[2]; 4 weeks,0
same,Basophils,[2]; 4 weeks,0%
same,Eosinophils,[2]; 4 weeks,0.25 ± 0.50%
same,Hematocrit,[2]; 4 weeks,50.25 ± 1.71%
same,Hemoglobin,[2]; 4 weeks,14.13 ± 0.68 g/dL
same,Leukocytes,[2]; 4 weeks,3.53 ± 1.32 G/L
same,Lymphocyte,[2]; 4 weeks,71.50 ± 5.57%
same,MCH,[2]; 4 weeks,14.00 ± 0.12 pg
same,MCHC,[2]; 4 weeks,28.50 ± 0.58 g/dL
same,MCV,[2]; 4 weeks,49.75 ± 0.50 fL
same,Monocyte,[2]; 4 weeks,4.25 ± 1.26%
same,Reticulocyte,[2]; 4 weeks,5.10 ± 0.81%
same,Segmented neutrophils,[2]; 4 weeks,22.50 ± 6.40%
same,Thrombocytes,[2]; 4 weeks,1506.00 ± 174.68 G/L
same,adverse effects on the hematology,[2]; 4 weeks,no adverse effects
same,Erythrocyte,[2]; 4 weeks from 15 weeks of age,10.08 ± 0.38 T/L
same,adverse effects on the serum clinical chemistry parameters,[3]; 4 weeks,no adverse effects
same,ALT,"[3]; serum, 4 weeks",32.60 ± 8.30 U/L
same,AST,"[3]; serum, 4 weeks",195.20 ± 147.29 U/L
same,Alkaline phosphatase,"[3]; serum, 4 weeks",69.40 ± 6.84 U/L
same,Calcium,"[3]; serum, 4 weeks",2.35 ± 0.06 mmol/L
same,Chloride,"[3]; serum, 4 weeks",111.20 ± 3.03 mmol/L
same,Cholesterol,"[3]; serum, 4 weeks",2.68 ± 0.60 mmol/L
same,Creatine kinase,"[3]; serum, 4 weeks",1500 ± 1475 U/L
same,Creatinine,"[3]; serum, 4 weeks",9.00 ± 2.16 µmol/L
same,GGT,"[3]; serum, 4 weeks",Not detectable
same,Inorganic phosphate,"[3]; serum, 4 weeks",3.26 ± 0.18 mmol/L
same,LDH,"[3]; serum, 4 weeks",813.3 ± 474.5 U/L
same,Lipase,"[3]; serum, 4 weeks",32.80 ± 4.15 U/L
same,Potassium,"[3]; serum, 4 weeks",9.02 ± 3.83 mmol/L
same,Sodium,"[3]; serum, 4 weeks",149.6 ± 3.9 mmol/L
same,Total protein,"[3]; serum, 4 weeks",50.00 ± 0.71 g/L
same,Triglycerides,"[3]; serum, 4 weeks",0.48 ± 0.13 g/L
same,Urea (BUN),"[3]; serum, 4 weeks",7.58 ± 1.32 mmol/L
same,Albumin,"[3]; serum, 4 weeks from 15 weeks of age",28.00 ± 1.00 g/L
